Source: ChEMBL document CHEMBL2057188, “Hybridizing ability and nuclease resistance profile of backbone modified cationic phosphorothioate oligonucleotides” (Bioorg Med Chem, 2012)

Key:
Type in all cases: nucleic-acid assay
Nucleic Acid [1] = assay: (§1) DNA hybridizing activity at 22 bp double stranded DNA assessed as thermal stability of duplexes formed between compound and complimentary dsDNA by measuring melting temperature at 1.5 uM in presence of 7 mM pH 5.5 sodium phosphate buffer containing 140 mM K, 10 mM MgCl2 by UV based melting experiment
Nucleic Acid [2] = assay: as §1, with “measuring change in” for “measuring”
Nucleic Acid [3] = assay: (§2) DNA hybridizing activity at single stranded RNA assessed as thermal stability of duplexes formed between compound and complimentary ssRNA by measuring melting temperature at 4 uM in presence of 10 mM pH 7.2 sodium phosphate buffer containing 100 mM NaCl by UV based melting experiment
Nucleic Acid [4] = assay: as §2, with “measuring change in” for “measuring”, “experiment relative to untreated control” for “experiment”
Nucleic Acid [5] = assay: (§3) DNA hybridizing activity at single stranded DNA assessed as thermal stability of duplexes formed between compound and complimentary ssDNA by measuring melting temperature at 4 uM in presence of 10 mM pH 7.2 sodium phosphate buffer containing 100 mM NaCl by UV based melting experiment
Nucleic Acid [6] = assay: as §3, with “measuring change in” for “measuring”, “experiment relative to untreated control” for “experiment”

## Cc1cn([C@H]2C[C@H](OP(=O)(O)OC[C@H]3O[C@@H](n4cc(C)c(=O)[nH]c4=O)C[C@@H]3OP(=O)(O)OC[C@H]3O[C@@H](n4cc(C)c(=O)[nH]c4=O)C[C@@H]3O[P@](=O)(OC[C@H]3O[C@@H](n4cc(C)c(=O)[nH]c4=O)C[C@@H]3OP(=O)(O)OC[C@H]3O[C@@H](n4cc(C)c(=O)[nH]c4=O)C[C@@H]3OP(=O)(O)OC[C@H]3O[C@@H](n4cc(C)c(=O)[nH]c4=O)C[C@@H]3OP(=O)(O)OC[C@H]3O[C@@H](n4ccc(N)nc4=O)C[C@@H]3OP(=O)(O)OC[C@H]3O[C@@H](n4ccc(N)nc4=O)C[C@@H]3OP(=O)(O)OC[C@H]3O[C@@H](n4ccc(N)nc4=O)C[C@@H]3OP(=O)(O)O)SCCCCCCN)[C@@H](COP(=O)(O)O[C@H]3C[C@H](n4ccc(N)nc4=O)O[C@@H]3COP(=O)(O)O[C@H]3C[C@H](n4ccc(N)nc4=O)O[C@@H]3COP(=O)(O)O[C@H]3C[C@H](n4ccc(N)nc4=O)O[C@@H]3CO)O2)c(=O)[nH]c1=O
Nucleic Acid [1]
  Tm: 23 °C
Nucleic Acid [2]
  ΔTm: -3 °C
Nucleic Acid [3]
  Tm: 41 °C
Nucleic Acid [4]
  ΔTm: -5 °C
Nucleic Acid [5]
  Tm: 37 °C
Nucleic Acid [6]
  ΔTm: -5 °C

## Cc1cn([C@H]2C[C@H](OP(=O)(O)OC[C@H]3O[C@@H](n4cc(C)c(=O)[nH]c4=O)C[C@@H]3OP(=O)(O)OC[C@H]3O[C@@H](n4cc(C)c(=O)[nH]c4=O)C[C@@H]3O[P@](=O)(OC[C@H]3O[C@@H](n4cc(C)c(=O)[nH]c4=O)C[C@@H]3OP(=O)(O)OC[C@H]3O[C@@H](n4cc(C)c(=O)[nH]c4=O)C[C@@H]3OP(=O)(O)OC[C@H]3O[C@@H](n4cc(C)c(=O)[nH]c4=O)C[C@@H]3OP(=O)(O)OC[C@H]3O[C@@H](n4ccc(N)nc4=O)C[C@@H]3OP(=O)(O)OC[C@H]3O[C@@H](n4ccc(N)nc4=O)C[C@@H]3OP(=O)(O)OC[C@H]3O[C@@H](n4ccc(N)nc4=O)C[C@@H]3OP(=O)(O)O)SCCNCCN)[C@@H](COP(=O)(O)O[C@H]3C[C@H](n4ccc(N)nc4=O)O[C@@H]3COP(=O)(O)O[C@H]3C[C@H](n4ccc(N)nc4=O)O[C@@H]3COP(=O)(O)O[C@H]3C[C@H](n4ccc(N)nc4=O)O[C@@H]3CO)O2)c(=O)[nH]c1=O
Nucleic Acid [1]
  Tm: 25 °C
Nucleic Acid [2]
  ΔTm: -1 °C
Nucleic Acid [3]
  Tm: 44 °C
Nucleic Acid [4]
  ΔTm: -2 °C
Nucleic Acid [5]
  Tm: 40 °C
Nucleic Acid [6]
  ΔTm: -2 °C

## Cc1cn([C@H]2C[C@H](OP(=O)(O)OC[C@H]3O[C@@H](n4cc(C)c(=O)[nH]c4=O)C[C@@H]3OP(=O)(O)OC[C@H]3O[C@@H](n4cc(C)c(=O)[nH]c4=O)C[C@@H]3O[P@@](=O)(OC[C@H]3O[C@@H](n4cc(C)c(=O)[nH]c4=O)C[C@@H]3OP(=O)(O)OC[C@H]3O[C@@H](n4cc(C)c(=O)[nH]c4=O)C[C@@H]3OP(=O)(O)OC[C@H]3O[C@@H](n4cc(C)c(=O)[nH]c4=O)C[C@@H]3OP(=O)(O)OC[C@H]3O[C@@H](n4ccc(N)nc4=O)C[C@@H]3OP(=O)(O)OC[C@H]3O[C@@H](n4ccc(N)nc4=O)C[C@@H]3OP(=O)(O)OC[C@H]3O[C@@H](n4ccc(N)nc4=O)C[C@@H]3OP(=O)(O)O)SCCCN)[C@@H](COP(=O)(O)O[C@H]3C[C@H](n4ccc(N)nc4=O)O[C@@H]3COP(=O)(O)O[C@H]3C[C@H](n4ccc(N)nc4=O)O[C@@H]3COP(=O)(O)O[C@H]3C[C@H](n4ccc(N)nc4=O)O[C@@H]3CO)O2)c(=O)[nH]c1=O
Nucleic Acid [1]
  Tm: 29 °C
Nucleic Acid [2]
  ΔTm: 4 °C
Nucleic Acid [3]
  Tm: 46 °C
Nucleic Acid [4]
  ΔTm: 0 °C
Nucleic Acid [5]
  Tm: 43 °C
Nucleic Acid [6]
  ΔTm: 1 °C

## Cc1cn([C@H]2C[C@H](OP(=O)(O)OC[C@H]3O[C@@H](n4cc(C)c(=O)[nH]c4=O)C[C@@H]3OP(=O)(O)OC[C@H]3O[C@@H](n4cc(C)c(=O)[nH]c4=O)C[C@@H]3O[P@@](=O)(OC[C@H]3O[C@@H](n4cc(C)c(=O)[nH]c4=O)C[C@@H]3OP(=O)(O)OC[C@H]3O[C@@H](n4cc(C)c(=O)[nH]c4=O)C[C@@H]3OP(=O)(O)OC[C@H]3O[C@@H](n4cc(C)c(=O)[nH]c4=O)C[C@@H]3OP(=O)(O)OC[C@H]3O[C@@H](n4ccc(N)nc4=O)C[C@@H]3OP(=O)(O)OC[C@H]3O[C@@H](n4ccc(N)nc4=O)C[C@@H]3OP(=O)(O)OC[C@H]3O[C@@H](n4ccc(N)nc4=O)C[C@@H]3OP(=O)(O)O)SCCCCCCN)[C@@H](COP(=O)(O)O[C@H]3C[C@H](n4ccc(N)nc4=O)O[C@@H]3COP(=O)(O)O[C@H]3C[C@H](n4ccc(N)nc4=O)O[C@@H]3COP(=O)(O)O[C@H]3C[C@H](n4ccc(N)nc4=O)O[C@@H]3CO)O2)c(=O)[nH]c1=O
Nucleic Acid [1]
  Tm: 27 °C
Nucleic Acid [2]
  ΔTm: 2 °C
Nucleic Acid [3]
  Tm: 43 °C
Nucleic Acid [4]
  ΔTm: -3 °C
Nucleic Acid [5]
  Tm: 42 °C
Nucleic Acid [6]
  ΔTm: 0 °C

## Cc1cn([C@H]2C[C@H](OP(=O)(O)OC[C@H]3O[C@@H](n4cc(C)c(=O)[nH]c4=O)C[C@@H]3OP(=O)(O)OC[C@H]3O[C@@H](n4cc(C)c(=O)[nH]c4=O)C[C@@H]3O[P@@](=O)(OC[C@H]3O[C@@H](n4cc(C)c(=O)[nH]c4=O)C[C@@H]3OP(=O)(O)OC[C@H]3O[C@@H](n4cc(C)c(=O)[nH]c4=O)C[C@@H]3OP(=O)(O)OC[C@H]3O[C@@H](n4cc(C)c(=O)[nH]c4=O)C[C@@H]3OP(=O)(O)OC[C@H]3O[C@@H](n4ccc(N)nc4=O)C[C@@H]3OP(=O)(O)OC[C@H]3O[C@@H](n4ccc(N)nc4=O)C[C@@H]3OP(=O)(O)OC[C@H]3O[C@@H](n4ccc(N)nc4=O)C[C@@H]3OP(=O)(O)O)SCCNCCCN)[C@@H](COP(=O)(O)O[C@H]3C[C@H](n4ccc(N)nc4=O)O[C@@H]3COP(=O)(O)O[C@H]3C[C@H](n4ccc(N)nc4=O)O[C@@H]3COP(=O)(O)O[C@H]3C[C@H](n4ccc(N)nc4=O)O[C@@H]3CO)O2)c(=O)[nH]c1=O
Nucleic Acid [1]
  Tm: 31 °C
Nucleic Acid [2]
  ΔTm: 6 °C
Nucleic Acid [3]
  Tm: 46 °C
Nucleic Acid [4]
  ΔTm: 0 °C
Nucleic Acid [5]
  Tm: 45 °C
Nucleic Acid [6]
  ΔTm: 3 °C

## Cc1cn([C@H]2C[C@H](OP(=O)(O)OC[C@H]3O[C@@H](n4cc(C)c(=O)[nH]c4=O)C[C@@H]3OP(=O)(O)OC[C@H]3O[C@@H](n4cc(C)c(=O)[nH]c4=O)C[C@@H]3O[P@@](=O)(OC[C@H]3O[C@@H](n4cc(C)c(=O)[nH]c4=O)C[C@@H]3OP(=O)(O)OC[C@H]3O[C@@H](n4cc(C)c(=O)[nH]c4=O)C[C@@H]3OP(=O)(O)OC[C@H]3O[C@@H](n4cc(C)c(=O)[nH]c4=O)C[C@@H]3OP(=O)(O)OC[C@H]3O[C@@H](n4ccc(N)nc4=O)C[C@@H]3OP(=O)(O)OC[C@H]3O[C@@H](n4ccc(N)nc4=O)C[C@@H]3OP(=O)(O)OC[C@H]3O[C@@H](n4ccc(N)nc4=O)C[C@@H]3OP(=O)(O)O)SCCCN3CCNCC3)[C@@H](COP(=O)(O)O[C@H]3C[C@H](n4ccc(N)nc4=O)O[C@@H]3COP(=O)(O)O[C@H]3C[C@H](n4ccc(N)nc4=O)O[C@@H]3COP(=O)(O)O[C@H]3C[C@H](n4ccc(N)nc4=O)O[C@@H]3CO)O2)c(=O)[nH]c1=O
Nucleic Acid [1]
  Tm: 27 °C
Nucleic Acid [2]
  ΔTm: 2 °C
Nucleic Acid [3]
  Tm: 45 °C
Nucleic Acid [4]
  ΔTm: -1 °C
Nucleic Acid [5]
  Tm: 45 °C
Nucleic Acid [6]
  ΔTm: 3 °C
